By IC50 is commonly meant the point on the concentration scale where inhibition reaches its midpoint.

Assay [1] concerns the target T1, Tie2 receptor tyrosine kinase (Homo sapiens, UniProt Q02763).
T1 construct: consist of only the intracellular portion C-terminal portion of the respective receptor, within which is found the kinase domain; made in house; host or cells: baculovirus/Sf21 insect cells, used as cleared lysate
Briefly: In vitro receptor tyrosine kinase inhibition assay (Test (a), ELISA based). The assay is classed as biochemical. To be noted: recombinant human kinase domain lysate, synthetic peptide substrate, ATP 5 micromolar or Km. How it is done:
a. In Vitro Receptor Tyrosine Kinase Inhibition Assay
To test for inhibition of Tie2 receptor tyrosine kinase, compounds are evaluated in a non-cell based protein kinase assay by their ability to inhibit the protein kinase enzyme phosphorylation of a tyrosine containing polypeptide substrate in an ELISA based microtitre plate assay. In this particular case, the assay was to determine the IC50, for three different recombinant human tyrosine kinases Tie2, KDR and Flt.
To facilitate production of the tyrosine kinases, recombinant receptor genes were produced using standard molecular biology cloning and mutagenesis techniques. […]
Constitutive kinase activity of these recombinant proteins was determined by their ability to phosphorylate a synthetic peptide (made up of a random co-polymer of Glutamic Acid, Alanine and Tyrosine in the ratio of 6:3:1). […]
The immobilised phospho-peptide product of the reaction was detected by immunological methods. […] Following extensive washing with PBS-T, HRP activity in each well of the plate was measured colorimetrically using 22′-Azino-di-[3-ethylbenzthiazoline sulfonate (6)] diammonium salt crystals ABTS (Sigma P4922—prepared as per manufactures instructions) as a substrate incubated for 30-45 minutes to allow colour development, before 100 ul of 1M H2SO4 was added to stop the reaction. […]
Background: ELISA stands for enzyme-linked immunosorbent assay.

Another assay deals with T2, Tie2 receptor (Homo sapiens, UniProt Q02763).
T2 construct: one can use natural cell lines or primary cells which are known to express the receptor of choice; endogenous in cells; host or cells: EA.hy926/B3 cells (HUVEC named as alternative)
Description: Cellular Tie2 autophosphorylation assay (Test (b)). The format is cell-based. The settings on record: Ang1 ligand stimulated Tie2 autophosphorylation, e.g. EA.hy926/B3 cells, western blot. An excerpt:
b. Cellular Tie2 Autophosphorylation Assay
This assay is based on measuring the ability of compounds to inhibit autophosphorylation of the Tie2 receptor which normally leads to the production of “activated” receptor that in turn initiates the particular signal transduction pathways associated with the receptor function.
Autophosphorylation can be achieved by a number of means. It is known that expression of recombinant kinase domains in baculoviral systems can lead to the production of phosphorylated and activated receptor. […] In these cases the natural, external cell surface domain of the receptor has been replaced with that of a domain which is known to be readily dimerised via the addition of the appropriate ligand (e.g. TrkA-Tie2/NGF ligand (Marron, M. B., et al., 2000 Journal of Biological Chemistry: 275:39741-39746) or C-fms-Tie-1/CSF-1 ligand (Kontos, C. D., et al., 2002 Molecular and Cellular Biology: 22, 1704-1713). Thus when the chimaeric receptor expressed in a host cell line and the respective ligand is added, this induces autophosphorylation of the chimeric receptor's kinase domain. This approach has the advantage of often allowing a known (and often easily obtained) ligand to be used instead of having to identify and isolate the natural ligand for each receptor of interest. […]

T1 sequence (Q02763 770-1124 limits assumed): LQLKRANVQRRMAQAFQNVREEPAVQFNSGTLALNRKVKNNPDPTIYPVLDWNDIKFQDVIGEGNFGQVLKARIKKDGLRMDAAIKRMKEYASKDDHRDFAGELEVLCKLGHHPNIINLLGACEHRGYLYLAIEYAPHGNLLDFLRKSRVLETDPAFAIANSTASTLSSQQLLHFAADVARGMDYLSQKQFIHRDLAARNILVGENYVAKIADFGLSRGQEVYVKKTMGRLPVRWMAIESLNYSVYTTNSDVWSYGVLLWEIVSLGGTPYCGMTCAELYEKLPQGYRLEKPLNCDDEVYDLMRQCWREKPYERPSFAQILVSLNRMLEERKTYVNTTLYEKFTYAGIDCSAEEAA
T2 sequence (Q02763 23-1124): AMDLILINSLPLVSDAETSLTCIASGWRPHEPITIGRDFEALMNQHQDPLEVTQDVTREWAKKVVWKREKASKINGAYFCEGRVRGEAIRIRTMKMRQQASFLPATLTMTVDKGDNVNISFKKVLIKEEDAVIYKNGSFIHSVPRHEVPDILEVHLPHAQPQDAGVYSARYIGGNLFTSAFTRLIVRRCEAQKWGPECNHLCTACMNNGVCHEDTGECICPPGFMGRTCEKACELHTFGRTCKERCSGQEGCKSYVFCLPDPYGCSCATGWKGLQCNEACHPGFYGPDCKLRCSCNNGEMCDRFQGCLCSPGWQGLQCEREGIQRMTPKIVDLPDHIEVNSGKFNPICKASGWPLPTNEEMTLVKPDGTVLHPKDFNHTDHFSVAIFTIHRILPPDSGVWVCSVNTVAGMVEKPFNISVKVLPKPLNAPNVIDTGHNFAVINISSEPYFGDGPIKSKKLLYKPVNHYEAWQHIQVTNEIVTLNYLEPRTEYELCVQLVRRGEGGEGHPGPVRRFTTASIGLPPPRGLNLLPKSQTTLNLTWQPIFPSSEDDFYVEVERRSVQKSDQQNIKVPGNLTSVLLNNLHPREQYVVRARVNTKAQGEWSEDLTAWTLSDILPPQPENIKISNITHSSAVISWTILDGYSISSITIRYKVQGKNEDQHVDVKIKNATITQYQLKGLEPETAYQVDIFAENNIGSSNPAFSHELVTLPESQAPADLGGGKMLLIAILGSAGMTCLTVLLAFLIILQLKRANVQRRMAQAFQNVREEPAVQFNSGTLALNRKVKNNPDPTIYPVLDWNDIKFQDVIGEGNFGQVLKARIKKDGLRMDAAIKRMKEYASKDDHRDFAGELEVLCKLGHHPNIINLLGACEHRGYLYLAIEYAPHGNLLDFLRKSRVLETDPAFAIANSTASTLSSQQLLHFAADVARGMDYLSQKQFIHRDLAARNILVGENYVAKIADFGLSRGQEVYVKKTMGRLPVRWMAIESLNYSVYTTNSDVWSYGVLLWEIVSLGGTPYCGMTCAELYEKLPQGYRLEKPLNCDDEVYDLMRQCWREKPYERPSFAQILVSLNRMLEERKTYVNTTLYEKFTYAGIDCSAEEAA

For `Cn1cnc(-c2cccc(NC(=O)Nc3cccc(F)c3)c2)c1-c1cc2c(N)ncnc2s1` [Example 1, N-{3-[5-(4-Aminothieno[2,3-d]pyrimidin-6-yl)-1-methyl-1H-imidazol-4-yl]phenyl}-N′-(3-fluorophenol)urea], the IC50 stood at 16 µM in assay [1] and 0.4 µM against Tie2 receptor.

Source of the values: US7476677B2, “Substituted thieno- and thiazolo- [2,3-d]pyrimidines and [2,3-c]pyridines as inhibitors of Tie2” (AstraZeneca AB, priority 2004, dated 2009).
